Laboratory results published in patent publication US10533003B2, “Polyheteroarl histone deacetylase inhibitors and their use in therapy” (Karus Therapeutics Limited, priority 2014, dated 2020).

Assays:
Recombinant human HDAC6 = target: T1, Recombinant human HDAC6 (Homo sapiens, UniProt Q9UBN7); test: Biochemical HDAC inhibition assay, acetylated AMC-labeled peptide substrate, HDAC6; conditions: 2 hours at 30° C., read-out: IC50 (nM) HDAC 6
T1 construct: full length, MW=180 kDa, was expressed by baculovirus in Sf9 insect cells; GST (N); host or cells: Sf9 insect cells (baculovirus)
T1 sequence (Q9UBN7 1-1215): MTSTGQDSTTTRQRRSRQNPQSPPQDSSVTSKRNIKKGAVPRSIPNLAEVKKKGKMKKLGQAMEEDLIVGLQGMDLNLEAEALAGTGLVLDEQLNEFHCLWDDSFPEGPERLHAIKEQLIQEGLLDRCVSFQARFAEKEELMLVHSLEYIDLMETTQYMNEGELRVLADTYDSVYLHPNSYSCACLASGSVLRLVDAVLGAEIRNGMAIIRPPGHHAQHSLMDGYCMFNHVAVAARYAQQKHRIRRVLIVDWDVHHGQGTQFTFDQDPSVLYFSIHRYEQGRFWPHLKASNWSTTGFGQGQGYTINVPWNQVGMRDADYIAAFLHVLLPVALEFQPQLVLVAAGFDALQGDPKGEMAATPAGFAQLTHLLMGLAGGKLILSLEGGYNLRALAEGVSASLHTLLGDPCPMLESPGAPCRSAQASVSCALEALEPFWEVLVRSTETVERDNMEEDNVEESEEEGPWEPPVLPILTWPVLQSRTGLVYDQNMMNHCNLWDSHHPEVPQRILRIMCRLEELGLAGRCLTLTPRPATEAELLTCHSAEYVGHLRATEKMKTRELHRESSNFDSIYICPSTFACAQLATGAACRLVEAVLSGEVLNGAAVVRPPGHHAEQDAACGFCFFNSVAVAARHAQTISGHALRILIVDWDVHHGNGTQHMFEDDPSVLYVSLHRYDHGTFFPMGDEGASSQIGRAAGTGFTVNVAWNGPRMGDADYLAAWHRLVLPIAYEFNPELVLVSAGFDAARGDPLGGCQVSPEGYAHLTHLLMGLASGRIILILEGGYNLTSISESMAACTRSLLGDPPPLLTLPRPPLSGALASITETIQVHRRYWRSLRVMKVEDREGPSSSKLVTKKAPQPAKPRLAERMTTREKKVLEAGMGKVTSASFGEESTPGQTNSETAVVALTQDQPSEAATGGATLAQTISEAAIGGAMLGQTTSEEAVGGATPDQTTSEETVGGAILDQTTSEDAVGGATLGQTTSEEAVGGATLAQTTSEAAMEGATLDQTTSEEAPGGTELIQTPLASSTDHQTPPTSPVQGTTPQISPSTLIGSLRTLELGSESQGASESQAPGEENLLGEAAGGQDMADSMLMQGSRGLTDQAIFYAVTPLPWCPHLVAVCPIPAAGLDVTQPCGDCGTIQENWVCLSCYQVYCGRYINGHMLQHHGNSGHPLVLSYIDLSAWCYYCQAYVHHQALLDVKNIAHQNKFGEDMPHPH
Protocol: (§1) Activity against all zinc-dependent HDACs 1 to 11 was assessed by using an acetylated AMC-labeled peptide substrate. The substrate RHKKAc was used for all class I and IIb HDACs; for HDAC8, the substrate used was RHKAcKAc. Activity against the class IIa HDACs (HDAC4, 5, 7, 9) was determined using a class IIa-specific substrate, Acetyl-Lys(trifluoroacetyl)-AMC (Lahm et al, 2007, PNAS, 104, 17335-17340). All assays were based on the AMC-labeled substrate and developer combination.
(§2) The protocol involved a two-step reaction: first, the substrate with the acetylated lysine side chain is incubated with a sample containing HDAC activity, to produce the deacetylated products, which are then digested in the second step by the addition of developer to produce the fluorescent signal proportional to the amount of deacetylated substrates.
Recombinant human HDAC6 (GenBank Accession No. BC069243), full length, MW=180 kDa, was expressed by baculovirus in Sf9 insect cells using an N-terminal GST tag.
(§3) Assay Buffer: 50 mM Tris-HCl, pH8.0, 137 mM NaCl, 2.7 mM KCl, 1 mM MgCl2. Before use, 1 mg/mL BSA and DMSO are added.
HDAC6: 0.56 nM HDAC6 and […] HDAC substrate are in the reaction buffer with 1% DMSO final. Incubate for 2 hours at 30° C.
(§4) Stage 1: Deacetylation of substrate by incubation of HDAC enzymes with corn pounds
(§5) Stage 2: Development by addition of Developer to digest the deacetylated substrate, and generate the fluorescent colour; Detection: 360/460 Ex/Em

Human HDAC1 = target: T2, Human HDAC1 (Homo sapiens, UniProt Q13547); test: Biochemical HDAC inhibition assay, acetylated AMC-labeled peptide substrate, HDAC1; conditions: 2 hours at 30° C., read-out: IC50 (nM) HDAC 1
T2 construct: full length with C-terminal His-tag and C-terminal FLAG-tag; His-tag (C); FLAG-tag (C); host or cells: baculovirus expression system
Protocol: as §1, §2
Human HDAC1 (GenBank Accession No. NM_004964), full length with C-terminal His-tag and C-terminal FLAG-tag, MW=56 kDa, expressed in baculovirus expression system.
as §3
HDAC1: 2.68 nM HDAC1 and 50 m M HDAC substrate are in the reaction buffer with 1% DMSO final. Incubate for 2 hours at 30° C.
as §4, §5

T2 sequence (Q13547 whole entry): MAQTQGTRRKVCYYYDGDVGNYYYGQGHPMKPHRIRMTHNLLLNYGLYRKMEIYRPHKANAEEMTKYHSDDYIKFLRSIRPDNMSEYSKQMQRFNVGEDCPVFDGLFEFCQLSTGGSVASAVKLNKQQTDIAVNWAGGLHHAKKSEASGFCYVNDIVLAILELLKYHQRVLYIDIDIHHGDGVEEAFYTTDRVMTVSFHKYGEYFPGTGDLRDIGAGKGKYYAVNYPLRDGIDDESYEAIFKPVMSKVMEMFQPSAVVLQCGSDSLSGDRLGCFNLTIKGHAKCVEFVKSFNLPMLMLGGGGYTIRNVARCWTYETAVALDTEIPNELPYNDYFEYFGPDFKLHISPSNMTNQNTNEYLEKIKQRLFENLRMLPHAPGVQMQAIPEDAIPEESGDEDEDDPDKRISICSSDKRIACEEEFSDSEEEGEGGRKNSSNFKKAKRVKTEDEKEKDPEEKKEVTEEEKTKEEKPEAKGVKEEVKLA

Compound	IC50 (Recombinant human HDAC6) [nM]	IC50 (Human HDAC1) [nM]
O=C(NO)c1ccc(CN(c2cnccn2)c2cc(-c3ccoc3)ccn2)cc1 [Example E, 4-({[4-(Furan-3-yl)pyridin-2-yl](pyrazin-2-yl)amino}methyl)-N-hydroxybenzamide]	≤ 500	500 to 1000
O=C(NO)c1ccc(CN(c2cnccn2)c2cc(-c3cc[nH]n3)ccn2)cc1 [Example L, N-Hydroxy-4-{[(pyrazin-2-yl)[4-(1H-pyrazol-3-yl)pyridin-2-yl]amino]methyl}benzamide]	≤ 500	1000 to 10000
Cc1n[nH]c(C)c1-c1ccnc(N(Cc2ccc(C(=O)NO)cc2)c2cnccn2)c1 [Example J, 4-({[4-(3,5-Dimethyl-1H-pyrazol-4-yl)pyridin-2-yl](pyrazin-2-yl)amino}methyl)-N-hydroxybenzamide]	≤ 500	1000 to 10000
CC(=O)Nc1cc(-c2ccnc(N(Cc3ccc(C(=O)NO)cc3)c3cnccn3)c2)ccn1 [Example O, 4-({[4-(2-Acetamidopyridin-4-yl)pyridin-2-yl](pyrazin-2-yl)amino}methyl)-N-hydroxybenzamide]	≤ 500	1000 to 10000
O=C(NO)c1ccc(CN(c2cnccn2)c2cc(-c3c[nH]nc3C(F)(F)F)ccn2)cc1 [Example G, N-Hydroxy-4-{[(pyrazin-2-yl)({4-[3-(trifluoromethyl)-1H-pyrazol-4-yl]pyridin-2-yl})amino]methyl}benzamide]	≤ 500	1000 to 10000
Nc1ccc(-c2ccnc(N(Cc3ccc(C(=O)NO)cc3F)c3cnccn3)c2)cn1 [Example P, 4-({[4-(6-Aminopyridin-3-yl)pyridin-2-yl](pyrazin-2-yl)amino}methyl)-3-fluoro-N-hydroxybenzamide]	≤ 500	500 to 1000
Cc1cc(-c2ccnc(N(Cc3ccc(C(=O)NO)cc3)c3cnccn3)c2)c(C)o1 [Example F, 4-({[4-(2,5-Dimethylfuran-3-yl)pyridin-2-yl](pyrazin-2-yl)amino}methyl)-N-hydroxybenzamide]	≤ 500	1000 to 10000
Nc1ncc(-c2ccnc(N(Cc3ccc(C(=O)NO)cc3)c3cnccn3)c2)cn1 [Example A, 4-({[4-(2-Aminopyrimidin-5-yl)pyridin-2-yl](pyrazin-2-yl)amino}methyl)-N-hydroxybenzamide]	≤ 500	1000 to 10000
Nc1cc(-c2ccnc(N(Cc3ccc(C(=O)NO)cc3F)c3cnccn3)c2)ccn1 [Example Q, 4-({[4-(2-Aminopyridin-4-yl)pyridin-2-yl](pyrazin-2-yl)amino}methyl)-3-fluoro-N-hydroxybenzamide]	≤ 500	1000 to 10000
Nc1ncc(-c2ccnc(N(Cc3ccc(C(=O)NO)cc3)c3cnccn3)c2)cc1F [Example M, 4-({[4-(6-Amino-5-fluoropyridin-3-yl)pyridin-2-yl](pyrazin-2-yl)amino}methyl)-N-hydroxybenzamide]	≤ 500	1000 to 10000
CS(=O)(=O)Nc1ccc(-c2ccnc(N(Cc3ccc(C(=O)NO)cc3F)c3cnccn3)c2)cn1 [Example T, 3-Fluoro-N-hydroxy-4-({[4-(6-methanesulfonamidopyridin-3-yl)pyridin-2-yl](pyrazin-2-yl)amino}methyl)benzamide]	≤ 500	≥ 10000
CC(=O)Nc1ccc(-c2ccnc(N(Cc3ccc(C(=O)NO)cc3F)c3cnccn3)c2)cn1 [Example R, 4-({[4-(6-Acetamidopyridin-3-yl)pyridin-2-yl](pyrazin-2-yl)amino}methyl)-3-fluoro-N-hydroxybenzamide]	≤ 500	1000 to 10000
CS(=O)(=O)Nc1cc(-c2ccnc(N(Cc3ccc(C(=O)NO)cc3F)c3cnccn3)c2)ccn1 [Example U, 3-Fluoro-N-hydroxy-4-({[4-(2-methanesulfonamidopyridin-4-yl)pyridin-2-yl](pyrazin-2-yl)amino}methyl)benzamide]	≤ 500	≥ 10000
CC(=O)Nc1ccc(-c2ccnc(N(Cc3ccc(C(=O)NO)cc3)c3cnccn3)c2)cn1 [Example N, 4-({[4-(6-Acetamidopyridin-3-yl)pyridin-2-yl](pyrazin-2-yl)amino}methyl)-N-hydroxybenzamide]	≤ 500	1000 to 10000
O=C(NO)c1ccc(CN(c2cnccn2)c2cc(-c3c[nH]c4ncccc34)ccn2)cc1 [Example K, N-Hydroxy-4-{[(pyrazin-2-yl)(4-{1H-pyrrolo[2,3-b]pyridin-3-yl}pyridin-2-yl)amino]methyl}benzamide]	≤ 500	1000 to 10000
O=C(NO)c1ccc(CN(c2cnccn2)c2cc(-c3cnc4[nH]ccc4c3)ccn2)cc1 [Example B, N-Hydroxy-4-{[(pyrazin-2-yl)(4-{1H-pyrrolo[2,3-b]pyridin-5-yl}pyridin-2-yl)amino]methyl}benzamide]	≤ 500	1000 to 10000
O=C(NO)c1ccc(CN(c2cnccn2)c2cc(-c3cn[nH]c3)ccn2)cc1 [Example D, N-Hydroxy-4-{[(pyrazin-2-yl)[4-(1H-pyrazol-4-yl)pyridin-2-yl]amino]methyl}benzamide]	≤ 500	1000 to 10000
O=C(NO)c1ccc(CN(c2cnccn2)c2cc(-c3ccc4[nH]ccc4c3)ccn2)cc1 [Example C, N-Hydroxy-4-({[4-(1H-indol-5-yl)pyridin-2-yl](pyrazin-2-yl)amino}methyl)benzamide]	≤ 500	500 to 1000
Cc1n[nH]cc1-c1ccnc(N(Cc2ccc(C(=O)NO)cc2)c2cnccn2)c1 [Example I, N-Hydroxy-4-({[4-(3-methyl-1H-pyrazol-4-yl)pyridin-2-yl](pyrazin-2-yl)amino}methyl)benzamide]	≤ 500	≥ 10000
CC(=O)Nc1cc(-c2ccnc(N(Cc3ccc(C(=O)NO)cc3F)c3cnccn3)c2)ccn1 [Example S, 4-({[4-(2-Acetamidopyridin-4-yl)pyridin-2-yl](pyrazin-2-yl)amino}methyl)-3-fluoro-N-hydroxybenzamide]	≤ 500	1000 to 10000
Cc1noc(C)c1-c1ccnc(N(Cc2ccc(C(=O)NO)cc2)c2cnccn2)c1 [Example H, 4-({[4-(Dimethyl-1,2-oxazol-4-yl)pyridin-2-yl](pyrazin-2-yl)amino}methyl)-N-hydroxybenzamide]	≤ 500	≥ 10000
